Results published in BigSolDB 2.1.

CC[C@H](C)[C@H]1O[C@]2(CC[C@@H]1C)C[C@@H]1C[C@@H](C/C=C(\C)[C@@H](O[C@H]3C[C@H](OC)[C@@H](O[C@H]4C[C@H](OC)[C@@H](O)[C@H](C)O4)[C@H](C)O3)[C@@H](C)/C=C/C=C3\CO[C@@H]4[C@H](O)C(C)=C[C@@H](C(=O)O1)[C@]34O)O2
solubility (mole fraction)
Conditions	293.2 K	298.2 K	303.2 K	308.2 K	313.2 K
in isopropanol	0.0675	0.0823	0.0915	0.0967	0.106
in n-propanol	0.089	0.105	0.115	0.122	0.136
in water	5.1e-06	5.6e-06	6.1e-06	6.5e-06	6.9e-06
